Measured values from patent publication US20240217951A1, “PCSK9 INHIBITORS AND METHODS OF USE THEREOF” (AstraZeneca AB, priority 2022, published 2024).

Key:
[1] = target: T1, human PCSK9 (Homo sapiens, UniProt Q8NBP7); assay: Assay 2 - Biophysical human PCSK9 assay (SPR, Biacore); assay type: binding; conditions: geometric mean; SPR at 30° C; read-out: Assay 2 (PCSK9 BIAcore DBA CR) GMean Kd
T1 construct: biotinylated human PCSK9 (31-692)-Avi-His6; His6 (C)
Procedure: Assay 2—Biophysical Human PCSK9 Assay
The SPR binding experiments were performed on a Biacore S200 optical biosensor unit at 30° C. A Series S Sensor Chip SA that is designed to bind biotinylated molecules for interaction analysis in Biacore systems was equilibrated at room temperature prior to use. The running buffer for protein tethering and subsequent ligand binding experiments was 10 mM HEPES pH 7.4, 150 mM NaCl, 0.05% (v/v) Tween 20 pH 7.4.
For the surface tethering of PCSK9, biotinylated human PCSK9 (31-692)-Avi-His6 at a concentration of 0.5 mg/mL was used. Prior to the surface tethering, the surface was exposed to a solution of 50 mM NaOH, 500 mM NaCl via 3 consecutive injections of this solution with a contact time of 60 s and a flowrate of 10 μL min^−1 to remove non-conjugated streptavidin. The PCSK9 protein was diluted to a concentration of 20 μg/mL using running buffer and injected with a contact time of 180-300 s and a flowrate of 10 μL min^−1 over a single flow channel (typically flow channel 2 or flow channel 4) with the aim to achieve protein capture levels of >5000 response units (RU). Remaining biotin binding sites were blocked via 2 consecutive injections of a 10 μM D-biotin solution in running buffer with a contact time of 60 s and a flowrate of 10 μL min^−1 over all flow-channels. Flow-channels 1 and 3 typically served as a reference surface throughout the subsequent binding experiments.
The binding experiments were all performed at a flow rate of 30 PL min^−1 and by employing the method of single-cycle kinetics. This approach involves the sequential injection of a compound concentration series without regeneration steps. A contact time between 90-150 s was selected, which was followed by a 40 min dissociation phase to allow for a proper estimation of the dissociation rate constant. Test compounds were delivered in DMSO at a concentration of 10 mM and a digital dispenser HP D300 was used to set up the compound concentration series using 6 concentrations. The tested concentrations have been 30, 100, 300, 1000, 3000 and 10000 nM. Prior to injecting any compound, the surfaces were equilibrated by injecting running buffer over them in three separate pulses. The data collection rate was set to 10 Hz.
The raw sensorgrams of the compound injections were first subjected to reference subtraction (subtracting the signal from flow channel 1 and/or 3 from the signal from channels 2 and/or 4 respectively) and then blank subtraction (subtracting the signal from injecting DMSO controls from the reference subtracted data). The resulting double-referenced sensorgrams were then fitted using a 1:1 binding interaction model using the manufactures software package to extract kinetic- and affinity data. Active compounds have been defined by creating a detectable binding signal at the highest compound concentration ([…]) of 3 RUs. Kinetic- and affinity data on active compounds are only provided for those compounds where the binding signal at the highest compound concentration ([…]) is 50% of the theoretical maximum binding signal for a 1:1 binding interaction (Rmax, typically between 15-20 RUs) in order to enable a proper fitting of the data.

[2] = target: PCSK9 (Homo sapiens, UniProt Q8NBP7, G670E/V474I); assay: biochemical
[3] = target: T2, potassium ion channel hERG (human Ether-á-go-go-Related Gene) (Homo sapiens, UniProt Q12809); assay: Assay 5 - hERG assay (SyncroPatch 384PE patch clamp, CHO cells); assay type: cell-based; conditions: geometric mean; CHO cells over-expressing hERG; read-out: Assay 5 (hERG Hu CHO IF EPh CR-Syncro) GMean IC50
T2 construct: expressed in transfected cells; host or cells: Chinese hamster ovary K1 (CHO)
In short: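 Automated high-throughput patch clamp on CHO-K1 cells overexpressing hERG at room temperature, KF/KCl internal with escin, NMDG-containing external at pH 7.4. Six-point cumulative compound addition, 0.33% DMSO final; wells kept only with seal >30 MΩ, Z′ >0.4 and current >0.2 nA.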

[4] = target: GSK3β (Glycogen synthase kinase-3 beta) (Homo sapiens, UniProt P49841); assay: Assay 6 - GSK3β assay (ThermoFisher Z-Lyte); assay type: biochemical; conditions: geometric mean; ATP Conc: 10 μM; read-out: Assay 6 (GSK3β FRET-Z-Lyte CR) GMean IC50 (μM) ATP Conc: 10
In short: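 Z-Lyte fluorescence kinase assay with 0.22-0.92 ng GSK3β and 2 μM Ser/Thr 09 peptide in 50 mM HEPES pH 7.5, 10 mM MgCl2, 1 mM EGTA, 0.01% BRIJ-35. Kinase reaction 60 min at room temperature, then 60 min development. 10-point 3-fold titration from 10 μM in 1% DMSO, fitted to a sigmoidal dose-response curve.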

Chain of GSK3β (Glycogen synthase kinase-3 beta) (P49841 whole entry): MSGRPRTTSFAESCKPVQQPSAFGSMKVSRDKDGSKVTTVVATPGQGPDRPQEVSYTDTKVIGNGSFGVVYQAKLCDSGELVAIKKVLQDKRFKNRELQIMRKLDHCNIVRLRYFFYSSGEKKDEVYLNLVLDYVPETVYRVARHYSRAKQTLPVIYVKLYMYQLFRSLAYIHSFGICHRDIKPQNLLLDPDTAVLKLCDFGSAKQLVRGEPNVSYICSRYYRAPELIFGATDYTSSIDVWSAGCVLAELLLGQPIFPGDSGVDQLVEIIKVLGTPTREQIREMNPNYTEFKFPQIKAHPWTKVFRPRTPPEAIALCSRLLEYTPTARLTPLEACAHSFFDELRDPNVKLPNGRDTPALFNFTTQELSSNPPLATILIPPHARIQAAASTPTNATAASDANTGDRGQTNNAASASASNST
Chain of PCSK9 (Q8NBP7 with tags, fused parts or gaps V474I/G670E): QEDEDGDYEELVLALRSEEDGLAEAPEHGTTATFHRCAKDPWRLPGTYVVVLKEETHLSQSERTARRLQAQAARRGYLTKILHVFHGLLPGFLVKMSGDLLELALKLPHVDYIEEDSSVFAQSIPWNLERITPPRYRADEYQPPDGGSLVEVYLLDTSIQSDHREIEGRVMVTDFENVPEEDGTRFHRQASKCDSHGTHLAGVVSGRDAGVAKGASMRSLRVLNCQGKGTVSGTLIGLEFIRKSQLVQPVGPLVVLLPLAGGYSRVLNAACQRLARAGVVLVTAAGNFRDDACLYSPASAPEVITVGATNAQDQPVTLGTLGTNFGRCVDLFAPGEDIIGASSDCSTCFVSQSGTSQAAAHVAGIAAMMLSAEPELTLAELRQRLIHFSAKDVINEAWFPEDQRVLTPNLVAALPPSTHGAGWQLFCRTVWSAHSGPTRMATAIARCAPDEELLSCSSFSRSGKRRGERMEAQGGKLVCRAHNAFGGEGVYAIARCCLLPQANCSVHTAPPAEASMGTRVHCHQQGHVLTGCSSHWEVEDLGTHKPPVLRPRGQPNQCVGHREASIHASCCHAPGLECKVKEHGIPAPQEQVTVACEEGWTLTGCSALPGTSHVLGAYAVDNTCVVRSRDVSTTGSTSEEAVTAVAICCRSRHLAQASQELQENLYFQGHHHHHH
T1 sequence (Q8NBP7 31-692): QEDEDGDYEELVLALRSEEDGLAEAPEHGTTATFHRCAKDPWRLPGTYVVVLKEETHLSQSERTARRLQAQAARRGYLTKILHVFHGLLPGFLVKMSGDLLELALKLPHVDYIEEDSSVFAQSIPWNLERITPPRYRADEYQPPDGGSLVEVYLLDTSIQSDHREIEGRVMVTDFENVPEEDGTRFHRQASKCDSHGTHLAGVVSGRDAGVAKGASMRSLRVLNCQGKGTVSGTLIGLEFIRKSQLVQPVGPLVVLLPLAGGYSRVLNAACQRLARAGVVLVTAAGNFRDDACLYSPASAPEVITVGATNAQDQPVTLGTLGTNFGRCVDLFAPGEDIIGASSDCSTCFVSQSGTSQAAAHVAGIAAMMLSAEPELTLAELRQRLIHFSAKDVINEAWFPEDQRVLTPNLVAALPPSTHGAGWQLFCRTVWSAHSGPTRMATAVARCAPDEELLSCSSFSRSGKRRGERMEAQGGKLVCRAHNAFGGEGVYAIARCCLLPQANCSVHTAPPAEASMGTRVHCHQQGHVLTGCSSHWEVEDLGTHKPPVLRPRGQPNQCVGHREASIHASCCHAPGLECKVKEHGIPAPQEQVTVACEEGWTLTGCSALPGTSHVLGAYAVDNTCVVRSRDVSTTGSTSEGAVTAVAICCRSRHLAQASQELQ
T2 sequence (Q12809 whole entry): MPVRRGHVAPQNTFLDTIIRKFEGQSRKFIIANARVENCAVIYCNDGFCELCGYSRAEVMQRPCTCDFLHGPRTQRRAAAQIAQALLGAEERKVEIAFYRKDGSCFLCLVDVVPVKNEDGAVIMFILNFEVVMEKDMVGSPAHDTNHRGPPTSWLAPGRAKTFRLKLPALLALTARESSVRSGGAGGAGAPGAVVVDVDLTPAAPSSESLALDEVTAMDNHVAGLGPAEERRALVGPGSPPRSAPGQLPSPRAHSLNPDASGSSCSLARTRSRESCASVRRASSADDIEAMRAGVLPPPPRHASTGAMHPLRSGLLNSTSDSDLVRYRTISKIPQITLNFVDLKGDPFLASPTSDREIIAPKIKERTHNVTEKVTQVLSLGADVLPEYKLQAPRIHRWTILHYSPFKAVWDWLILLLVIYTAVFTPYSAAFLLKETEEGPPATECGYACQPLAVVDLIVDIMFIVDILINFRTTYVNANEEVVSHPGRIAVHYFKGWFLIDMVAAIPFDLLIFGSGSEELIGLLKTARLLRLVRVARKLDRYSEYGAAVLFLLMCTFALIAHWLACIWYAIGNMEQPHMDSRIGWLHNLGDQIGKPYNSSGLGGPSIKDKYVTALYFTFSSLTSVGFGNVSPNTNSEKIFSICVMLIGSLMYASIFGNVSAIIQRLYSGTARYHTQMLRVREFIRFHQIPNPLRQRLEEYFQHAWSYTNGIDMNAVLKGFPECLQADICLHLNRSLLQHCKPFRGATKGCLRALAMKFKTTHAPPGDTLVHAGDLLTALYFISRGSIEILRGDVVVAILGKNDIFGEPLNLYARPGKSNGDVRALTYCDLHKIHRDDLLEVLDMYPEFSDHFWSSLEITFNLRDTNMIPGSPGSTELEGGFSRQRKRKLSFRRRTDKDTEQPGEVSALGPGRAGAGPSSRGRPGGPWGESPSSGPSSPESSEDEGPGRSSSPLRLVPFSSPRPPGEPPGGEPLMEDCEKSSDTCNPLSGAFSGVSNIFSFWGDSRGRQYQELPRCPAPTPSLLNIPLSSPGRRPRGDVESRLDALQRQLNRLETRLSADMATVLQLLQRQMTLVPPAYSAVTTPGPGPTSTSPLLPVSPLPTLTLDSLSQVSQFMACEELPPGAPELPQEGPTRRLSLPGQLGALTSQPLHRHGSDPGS

Row | Structure (SMILES) | Kd [1] [nM] | IC50 [2] [nM] | IC50 [3] [nM] | IC50 [4] [µM]
1 | Cc1nc(N[C@H]2CC[C@H](Nc3ccc(-n4ccccc4=O)cn3)C2)cnc1C#N [Example 1, 3-Methyl-5-(((1S,3S)-3-((2-oxo-2H-[1,3′-bipyridin]-6′-yl)amino)cyclopentyl)amino)pyrazine-2-carbonitrile] | 1700 | 2750 | > 40100 | –
2 | Cc1ncc(N[C@H]2CC[C@H](Nc3ccc(-n4ccccc4=O)cn3)C2)nc1C [Example 2, 6′-(((1S,3S)-3-((5,6-Dimethylpyrazin-2-yl)amino)cyclopentyl)amino)-2H-[1,3′-bipyridin]-2-one] | 64 | 112 | > 40000 | > 10
3 | O=c1ccccn1-c1ccc(N[C@H]2CC[C@H](Nc3cnc(Cl)cn3)C2)nc1 [Example 3, 6′-(((1S,3S)-3-((5-Chloropyrazin-2-yl)amino)cyclopentyl)amino)-2H-[1,3′-bipyridin]-2-one] | 39 | 40 | 24600 | > 10
4 | Cc1cnc(N[C@H]2CC[C@H](Nc3ccc(-n4ccccc4=O)cn3)C2)cn1 [Example 4, 6′-(((1S,3S)-3-((5-Methylpyrazin-2-yl)amino)cyclopentyl)amino)-2H-[1,3′-bipyridin]-2-one] | 81 | 104 | > 40000 | > 10
5 | N#Cc1cnc(N[C@H]2CC[C@H](Nc3ccc(-n4ccccc4=O)cn3)C2)cn1 [Example 5, 5-(((1S,3S)-3-((2-Oxo-2H-[1,3′-bipyridin]-6′-yl)amino)cyclopentyl)amino)pyrazine-2-carbonitrile] | 412 | 499 | 18500 | 0.713
6 | CC(=O)c1cnc(N[C@H]2CC[C@H](Nc3ccc(-n4ccccc4=O)cn3)C2)cn1 [Example 6, 6′-(((1S,3S)-3-((5-Acetylpyrazin-2-yl)amino)cyclopentyl)amino)-2H-[1,3′-bipyridin]-2-one] | 863 | 1160 | > 40100 | –
7 | Cc1ncc(N[C@H]2CC[C@H](Nc3ccc(-n4cccc(C)c4=O)cn3)C2)nc1C [Example 18, 6′-(((1S,3S)-3-((5,6-Dimethylpyrazin-2-yl)amino)cyclopentyl)amino)-3-methyl-2H-[1,3′-bipyridin]-2-one] | 14 | 17 | > 40000 | > 10
8 | Cc1ncc(N[C@H]2CC[C@H](Nc3ccc(N4C(=O)CN(C)C4=O)cn3)C2)nc1C [Example 22, 3-(6-(((1S,3S)-3-((5,6-Dimethylpyrazin-2-yl)amino)cyclopentyl)amino)pyridin-3-yl)-1-methylimidazolidine-2,4-dione] | 93 | 107 | > 40000 | > 10
9 | Cc1cnc(N[C@H]2CC[C@H](Nc3ccc(N4CC(=O)N(C)C4=O)cn3)C2)cn1 [Example 39, 3-Methyl-1-(6-(((1S,3S)-3-((5-methylpyrazin-2-yl)amino)cyclopentyl)amino)pyridin-3-yl)imidazolidine-2,4-dione] | 33 | 34 | > 40000 | > 10
10 | O=C(O)[C@@H]1CCC(=O)N1c1ccc(N[C@H]2CC[C@H](Nc3cnc(OC(F)F)cn3)C2)nc1 [Example 79, (S)-1-(6-(((1S,3S)-3-((5-(Difluoromethoxy)pyrazin-2-yl)amino)cyclopentyl)amino)pyridin-3-yl)-5-oxopyrrolidine-2-carboxylic acid] | 422 | 827 | > 40000 | > 10
11 | CN1CCN(c2ccc(=O)n(-c3ccc(N[C@H]4CC[C@H](Nc5cnc(OC(F)F)cn5)C4)nc3)c2)CC1 [Example 81, 6′-(((1S,3S)-3-((5-(Difluoromethoxy)pyrazin-2-yl)amino)cyclopentyl)amino)-5-(4-methylpiperazin-1-yl)-2H-[1,3′-bipyridin]-2-one] | 66 | 202 | > 40000 | 0.498
12 | O=c1ccccn1-c1ccc(N[C@H]2CC[C@H](Nc3cnc(OC(F)F)cn3)C2)nc1 [Example 86, 6′-(((1S,3S)-3-((5-(Difluoromethoxy)pyrazin-2-yl)amino)cyclopentyl)amino)-2H-[1,3′-bipyridin]-2-one] | 64 | 73 | 13400 | > 10
13 | CN1C(=O)CN(c2ccc(N[C@H]3CC[C@H](Nc4cnc(OC(F)F)cn4)C3)nc2)C1=O [Example 92, 1-(6-(((1S,3S)-3-((5-(Difluoromethoxy)pyrazin-2-yl)amino)cyclopentyl)amino)pyridin-3-yl)-3-methylimidazolidine-2,4-dione] | 52 | 59 | 4400 | > 10
14 | CN1CC(=O)N(c2ccc(N[C@H]3CC[C@H](Nc4cnc(Cl)cn4)C3)nc2)C1=O [Example 100, 3-(6-(((1S,3S)-3-((5-Chloropyrazin-2-yl)amino)cyclopentyl)amino)pyridin-3-yl)-1-methylimidazolidine-2,4-dione] | 45 | 28 | > 40100 | > 10
15 | Cc1nc(N[C@H]2CC[C@H](Nc3ccc(-n4ccccc4=O)cn3)C2)cnc1Cl [Example 102, 6′-(((1S,3S)-3-((5-Chloro-6-methylpyrazin-2-yl)amino)cyclopentyl)amino)-2H-[1,3′-bipyridin]-2-one] | 122 | 85 | 17700 | > 10
16 | O=c1ccccn1-c1ccc(N[C@H]2CC[C@H](Nc3cnc(OC(F)(F)F)cn3)C2)nc1 [Example 111, 6′-(((1S,3S)-3-((5-(Trifluoromethoxy)pyrazin-2-yl)amino)cyclopentyl)amino)-2H-[1,3′-bipyridin]-2-one] | 128 | 149 | 20800 | > 10
17 | O=c1ccccn1-c1ccc(N[C@H]2CC[C@H](Nc3cnc4ccc(Cl)cc4n3)C2)nc1 [Example 139, 6′-(((1S,3S)-3-((7-Chloroquinoxalin-2-yl)amino)cyclopentyl)amino)-2H-[1,3′-bipyridin]-2-one] | 460 | 235 | 4600 | 0.292
18 | COc1cnc(N[C@H]2CC[C@H](Nc3ccc(-n4ccccc4=O)cn3)C2)cn1 [Example 140, 6′-(((1S,3S)-3-((5-Methoxypyrazin-2-yl)amino)cyclopentyl)amino)-2H-[1,3′-bipyridin]-2-one] | 81 | 309 | > 40000 | –
19 | Cc1cncc(N[C@H]2CC[C@H](Nc3ccc(-n4ccccc4=O)cn3)C2)n1 [Example 141, 6′-(((1S,3S)-3-((6-Methylpyrazin-2-yl)amino)cyclopentyl)amino)-2H-[1,3′-bipyridin]-2-one] | 405 | 592 | > 40000 | > 10
20 | N#Cc1cncc(N[C@H]2CC[C@H](Nc3ccc(-n4ccccc4=O)cn3)C2)n1 [Example 142, 6-(((1S,3S)-3-((2-Oxo-2H-[1,3′-bipyridin]-6′-yl)amino)cyclopentyl)amino)pyrazine-2-carbonitrile] | 2420 | 1610 | > 35400 | 0.764
